Source: patent publication US9040525B2, “Cyclic amide derivative” (MOCHIDA PHARMACEUTICAL CO., LTD., priority 2010, dated 2015)

Biological target: T1, GPR40 of human origin (Homo sapiens, UniProt O14842)
T1 construct: expressed in transfected cells
Test: Agonist action on GPR40 of human origin (Ca2+ fluorescence, CHO cell strain stably expressing GPR40)
Type: cell-based
Settings: fluctuation of Ca2+ concentration
Procedure: A CHO cell strain stably expressing GPR40 of human origin was used to determine the agonist action of a title compound. This cell strain was seeded in a clear bottom 96 well plate at 2×10^4 cells/100 μL/well. The cell strain was cultured in a CO2 incubator overnight using a Ham's F-12 medium containing a 10% fetal bovine serum, 100 U/mL penicillin, 0.1 mg/mL streptomycin, and 400 μg/mL. Geneticin. Calcium 4 Assay Kit (Molecular Devices) was used as a fluorescent calcium indicator. One mL of 77 mg/mL probenecid (Invitrogen) was added to 100 mL of a calcium indicator solution to prepare a solution (loading solution) mixed with a 20 mM HEPES-containing Hanks' balanced salt solution (HBSS) in equal proportions. To the cells from which the culture solution was removed, 200 μL of the loading solution was added, and the cells were cultured in a CO2 incubator for 1 hour. The title compound was diluted with a 20 mM HEPES-containing HBSS and was added to the cells by 50 μL, and the fluctuation of the Ca^2+concentration was measured by an intracellular ion analyzer. The EC50 value of the title compound was calculated using the dose-response curve of fluorescence intensity variation.

T1 sequence (O14842 whole entry): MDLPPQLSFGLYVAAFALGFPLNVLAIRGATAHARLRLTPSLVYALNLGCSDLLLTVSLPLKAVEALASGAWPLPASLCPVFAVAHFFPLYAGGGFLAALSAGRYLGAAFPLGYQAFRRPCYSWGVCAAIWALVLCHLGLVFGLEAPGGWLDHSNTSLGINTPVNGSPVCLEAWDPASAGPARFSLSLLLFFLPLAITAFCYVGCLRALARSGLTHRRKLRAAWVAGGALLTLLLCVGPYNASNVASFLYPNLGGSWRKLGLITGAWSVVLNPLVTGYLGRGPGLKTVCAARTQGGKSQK

Work on `Cc1cc(OCCC(C)(C)O)nc(C)c1-c1cccc(COc2ccc(C3CC(=O)N[S+]3[O-])cc2)c1` (stereo not shown) [Example 6, 5-[4-[[3-[6-(3-hydroxy-3-methylbutoxy)-2,4-dimethylpyridin-3-yl]phenyl]methoxy]phenyl]-1-oxo-1,2-thiazolidin-3-one] yielded an EC50 of less than 300 nM.
